The text below walks through data of paper PMC11441021, “Novel hybrids of 1,2,3-triazole-benzoxazole: design, synthesis, and assessment of DprE1 enzyme inhibitors using fluorometric assay and computational analysis” (Journal of Enzyme Inhibition and Medicinal Chemistry, 2024).

Molecules are shown by their SMILES. Converted amounts (≈) assume the structure as drawn. “And” between values parts separate entries of the source, which are not always exact repeats. Equal values may be shown once.

Data set [1] has as its system M. tuberculosis H37Rv strain. The data set can be described thus: Resazurin microtiter assay (REMA), MIC against Mtb H37Rv. The following applies: MTB H37Rv (ATCC 27294), 7 days incubation, text calls it MIC; for MIC50: Mycobacterium tuberculosis, ATCC 27294 / H37Rv, 168 h. The format is cell-based, Mycobacterium tuberculosis.
A further data set concerns the target DprE1 (Mycobacterium tuberculosis, UniProt P9WJF1). The data set is described as follows: DprE1 inhibition (resazurin redox indicator, fluorometric) assay. The format is biochemical. The following applies: purified DprE1, GGPR substrate. As to the method:
For the identification and validation of the biological target for this new series of 1,2,3-triazole-linked benzoxazoles, compounds displaying antimycobacterial activity below 6 μg/mL and showcasing diverse side chains were assessed against the purified DprE1 protein (Table 1). The assessment of the compounds’ ability to inhibit DprE1 activity was conducted through an in-vitro assay. This involved purified DprE1 protein, geranylgeranyl-phosphoryl-β-d-ribose (GGPR) substrate, and resazurin as a redox indicator. The synthesised molecules were tested for their impact on DprE1 activity within this experimental setup. The initial rates of activity, characterised by increasing concentrations of the compound, were measured and compared to the control compound TCA-1. The half maximal inhibitory concentration (IC50) was then calculated for each synthesised compound, quantitatively assessing their inhibitory effect. […] The promising results prompted us to delve deeper into these compounds through initial assessments of their druggability profiles and validation via computational studies. This approach aims to enhance our understanding of the structural features involved in the inhibition mechanism of the DprE1 enzyme, utilising docking and molecular dynamics (MD) simulation studies.
A redox indicator assay was conducted following a previously described protocol, utilising the reduction of resazurin to its fluorescent form, resorufin. In this assay, the DprE1 cofactor FAD undergoes reduction to FADH2, while the C-2 hydroxyl group of the substrate GGPR is oxidised to form a keto-intermediate known as geranylgeranylphosphoryl-β-d-2′-keto-erythro-penta-furanose (GGPX)[11]^,[40]. The inhibition of DprE1 was assessed using an activity assay, with the half maximal inhibitory concentration (IC50) determined for each tested compound. Intermediate plates of compounds were prepared in V-bottomed 96-well plates, where the compounds were serially diluted twofold in DMSO. Subsequently, 1 µL of each compound dilution was pipetted in triplicate into Greiner black-bottomed 384 plates. The master mix (19 µL), comprising 5 µM DprE1, 50 mM Hepes pH 7.5, 100 mM NaCl, and 100 µM resazurin, was added to the compounds in the plate. The assay was initiated with 5 µL of 1 mM GGPR using the pump on the POLARstar Omega plate reader (BMG Labtech). Emission was measured at 590 nm with excitation at 530 nm at 37 °C[41]^. IC50 values were calculated using Prism GraphPad, fitting the data to a four-parameter dose–response curve. The initial rates of activity were used for the calculations, and fluorescence units were converted to µM resazurin reduced by referencing a resorufin standard curve.

For data set [2], the system named is mouse fibroblast 3T3 cells. The data set can be described thus: MTT cytotoxicity assay on mouse fibroblast 3T3 cells. In kind it is cell-based. The following applies: for Selectivity index: IC50 (μg/mL)/MIC (μg/mL), 3T3 cells vs Mtb H37Rv; for IC50: NIH3T3, MTT assay, read-out: 3T3 cell IC50. (Tetrazolium dyes change colour on reduction, which living cells bring about.)

[3] abbreviates: Mus musculus, mouse fibroblast 3T3 cells, cytotoxicity.

Chain of DprE1 (P9WJF1 whole entry): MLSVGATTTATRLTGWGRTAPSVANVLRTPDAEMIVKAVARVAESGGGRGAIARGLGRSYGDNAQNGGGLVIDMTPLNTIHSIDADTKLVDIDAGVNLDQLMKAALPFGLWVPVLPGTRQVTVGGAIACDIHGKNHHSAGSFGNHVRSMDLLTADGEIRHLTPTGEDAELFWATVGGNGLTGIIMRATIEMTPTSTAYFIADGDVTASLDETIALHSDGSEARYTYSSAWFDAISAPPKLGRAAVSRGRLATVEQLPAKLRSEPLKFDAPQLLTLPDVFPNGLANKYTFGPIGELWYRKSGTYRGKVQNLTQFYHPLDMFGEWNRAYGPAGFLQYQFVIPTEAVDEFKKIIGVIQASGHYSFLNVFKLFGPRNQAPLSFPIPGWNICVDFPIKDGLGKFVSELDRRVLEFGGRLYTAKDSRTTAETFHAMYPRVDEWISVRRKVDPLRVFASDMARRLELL

Usually MIC50 stands for the lowest concentration that inhibits either 50% of growth or 50% of the strains tested, depending on the study. Lower therefore signals higher susceptibility. On to `CO[C@H]1/C=C/O[C@@]2(C)Oc3c(C)c(O)c4c(O)c(c(/C=N/N5CCN(C)CC5)c(O)c4c3C2=O)NC(=O)/C(C)=C\C=C\[C@H](C)[C@H](O)[C@@H](C)[C@@H](O)[C@@H](C)[C@H](OC(C)=O)[C@@H]1C` [Rifampicin, reference compound], for which the MIC50 in data set [1] was less than 0.004 µg/mL.
One may read the melting point as the temperature, or range, at which the solid turns liquid. As for `O=C(CC(=O)Nc1cccc(Cl)c1)Cn1cc(CSc2nc3ccccc3o2)nn1` [BOK-4, 4–(4-((Benzo[d]oxazol-2-ylthio)methyl)-1H-1,2,3-triazol-1-yl)-N-(3-chlorophenyl)-3-oxobutanamide], the melting point lay within 165 to 169 °C. Also, in data set [1], the “Mtb H37Rv MIC50” value came to 6.9 µg/mL and the MIC50 amounted to 3.7 µg/mL (≈ 8.37 µM).
Regarding `O=C(CC(=O)Nc1ccc(Br)cc1)Cn1cc(CSc2nc3ccccc3o2)nn1` [BOK-8, 4–(4-((Benzo[d]oxazol-2-ylthio)methyl)-1H-1,2,3-triazol-1-yl)-N-(4-bromophenyl)-3-oxo butanamide], the melting point lay within 210 to 214 °C. In data set [1], this compound yielded an MIC50 of 44.1 µg/mL (≈ 90.7 µM).
The term IC50 denotes the concentration that gives 50% inhibition. In the case of `Cc1ccccc1NC(=O)CC(=O)Cn1cc(CSc2nc3ccccc3o2)nn1` [BOK-2, 4–(4-((Benzo[d]oxazol-2-ylthio)methyl)-1H-1,2,3-triazol-1-yl)-3-oxo-N-(o-tolyl) butanamide], the IC50 at DprE1 is 2 µM and 2.2 µM; in data set [2] (setting [3]) it was 104 µg/mL (≈ 247 µM). Further, in data set [2], the Selectivity index was 57.77. In addition, the “3T3 cell IC50” value in data set [2] (MTT assay, mouse fibroblast 3T3 cells, cytotoxicity) turned out to be 103.92 µg/mL.
`COc1ccc(NC(=O)CC(=O)Cn2cc(CSc3nc4ccccc4o3)nn2)cc1` [BOK-9, 4–(4-((Benzo[d]oxazol-2-ylthio)methyl)-1H-1,2,3-triazol-1-yl)-N-(4-methoxyphenyl)-3-oxo butanamide] gave a melting point of 169 to 172 °C. In data set [1], the MIC50 came to 10.6 µg/mL (≈ 24.2 µM).
As to `COc1ccc(C(=O)Cn2cc(CSc3nc4ccccc4o3)nn2)cc1` [BOP-2, 2–(4-((Benzo[d]oxazol-2-ylthio)methyl)-1H-1,2,3-triazol-1-yl)-1–(4-methoxyphenyl)ethan-1-one], the melting point lay within 148 to 152 °C. The compound further showed an MIC50 in data set [1] of 19.1 µg/mL (≈ 50.1 µM).
On to `O=C(Cn1cc(CSc2nc3ccccc3o2)nn1)c1ccc(F)cc1` [BOP-4, 2–(4-((Benzo[d]oxazol-2-ylthio)methyl)-1H-1,2,3-triazol-1-yl)-1–(4-fluorophenyl)ethan-1-one], for which, in data set [1], the MIC50 is not above 6.25 µg/mL. The IC50 against DprE1 was determined as 3.1 ± 0.7 µM; in data set [2] (setting [3]), 55.8 µg/mL (≈ 151 µM). This compound registered a Selectivity index in data set [2] of 11.62.
In turn, `O=C(CC(=O)Nc1ccc(C(F)(F)F)cc1)Cn1cc(CSc2nc3ccccc3o2)nn1` [BOK-6, 4–(4-((Benzo[d]oxazol-2-ylthio)methyl)-1H-1,2,3-triazol-1-yl)-3-oxo-N-(4-(trifluoromethyl)phenyl)butanamide] came in with a melting point of 185 to 189 °C. Moreover, the MIC50 in data set [1] stood at 39.6 µg/mL (≈ 83.3 µM).
`CCOC(=O)NC(=O)c1ccsc1NC(=O)c1nc2ccccc2s1` [TCA-1, reference compound]: inhibition against DprE1 was half-maximal at 3 ± 0.2 µM (IC50).
Regarding `Cc1ccc(NC(=O)CC(=O)Cn2cc(CSc3nc4ccccc4o3)nn2)cc1` [BOK-5, 4–(4-((Benzo[d]oxazol-2-ylthio)methyl)-1H-1,2,3-triazol-1-yl)-3-oxo-N-(p-tolyl) butanamide], the melting point lay in the range of 175 to 179 °C. This compound also displayed an MIC50 in data set [1] of 11.6 µg/mL (≈ 27.5 µM).
For `Cc1ccc(C(=O)Cn2cc(CSc3nc4ccccc4o3)nn2)cc1` [BOP-3, 2–(4-((Benzo[d]oxazol-2-ylthio)methyl)-1H-1,2,3-triazol-1-yl)-1-(p-tolyl)ethan-1-one], in that order: 142 to 146 °C and 20.5 µg/mL (≈ 56.3 µM).
In the same order, the values of `CCOc1ccc(NC(=O)CC(=O)Cn2cc(CSc3nc4ccccc4o3)nn2)cc1` [BOK-10, 4–(4-((Benzo[d]oxazol-2-ylthio)methyl)-1H-1,2,3-triazol-1-yl)-N-(4-ethoxyphenyl)-3-oxo butanamide] are 175 to 179 °C and 42.6 µg/mL (≈ 94.4 µM).
For the compound `O=C(Cn1cc(CSc2nc3ccccc3o2)nn1)c1ccc([N+](=O)[O-])cc1` [BOP-5, 2–(4-((Benzo[d]oxazol-2-ylthio)methyl)-1H-1,2,3-triazol-1-yl)-1–(4-nitrophenyl)ethan-1-one], the melting point fell in the range of 142 to 146 °C. For the same compound, the MIC50 in data set [1] amounted to 32.3 µg/mL (≈ 81.7 µM).
The term inhibition denotes the percentage by which the read-out fell short of the control. In the case of `O=c1[nH]cc(F)c(=O)[nH]1` [5-Fluorouracil, reference compound], the IC50 in data set [2] (setting [3]) came out at 53.7 µg/mL (≈ 413 µM). In data set [2] (Mus musculus, NIH3T3, MTT assay, 50 μg/mL, read-out: percentage inhibition of 3T3 cells), the inhibition at 50 µg/mL was more than 42%.
In data set [1], `O=C(CC(=O)Nc1ccccc1)Cn1cc(CSc2nc3ccccc3o2)nn1` [BOK-1, 4–(4-((Benzo[d]oxazol-2-ylthio)methyl)-1H-1,2,3-triazol-1-yl)-3-oxo-N-phenyl butanamide] had an MIC50 not above 6.25 µg/mL. Besides, the IC50 was found to be 5.2 ± 0.6 µM against DprE1 and 118 µg/mL (≈ 291 µM) in data set [2] (setting [3]). The compound also had a Selectivity index in data set [2] of 37.07.
For `O=C(Cn1cc(CSc2nc3ccccc3o2)nn1)c1ccccc1` [BOP-1, 2–(4-((Benzo[d]oxazol-2-ylthio)methyl)-1H-1,2,3-triazol-1-yl)-1-phenylethan-1-one], in that order: not above 6.25 µg/mL, 3.3 ± 1 µM, 51.7 µg/mL (≈ 148 µM) and 8.76.
For `O=C(CC(=O)Nc1ccccc1F)Cn1cc(CSc2nc3ccccc3o2)nn1` [BOK-3, 4–(4-((Benzo[d]oxazol-2-ylthio)methyl)-1H-1,2,3-triazol-1-yl)-N-(2-fluorophenyl)-3-oxobutanamide], the IC50 is 3 ± 0.6 µM against DprE1 and 112 µg/mL (≈ 263 µM) in data set [2] (setting [3]). Also, in data set [2], the Selectivity index was determined as 46.75.
In turn, `O=C(CC(=O)Nc1ccc(Cl)cc1)Cn1cc(CSc2nc3ccccc3o2)nn1` [BOK-7, 4–(4-((Benzo[d]oxazol-2-ylthio)methyl)-1H-1,2,3-triazol-1-yl)-N-(4-chlorophenyl)-3-oxo butanamide] returned a melting point of 171 to 174 °C. In data set [1], the “Mtb H37Rv MIC50” value is 6.7 µg/mL and the MIC50 stood at 6.9 µg/mL (≈ 15.6 µM).
